Results as given in EP0070331A2, “Cephalosporin derivatives, their preparation, compositions containing them, and their use in the treatment of diseases” (F. HOFFMANN-LA ROCHE & CO. Aktiengesellschaft, priority 1981, dated 1983).

Assays:
Escherichia coli = test: Curative dose (CD50) in infected mice, Escherichia coli; format: in vivo; details: Maus, dose at which 50% of mice survive
Serratia marcescens = test: Curative dose (CD50) in infected mice, Serratia marcescens; format: in vivo; details: Maus, dose at which 50% of mice survive
Excerpt: (§1) Die orale antimikrobielle Wirksamkeit der erfindungsgemässen Produkte kann anhand von in vivo-Versuchen an der Maus nachgewiesen werden.

Neisseria meningitidis = test: Curative dose (CD50) in infected mice, Neisseria meningitidis; format: in vivo; details: po, Maus, dose at which 50% of mice survive
Excerpt: as §1

Streptococcus pyogenes = test: Curative dose (CD50) in infected mice, Streptococcus pyogenes; format: in vivo; details: Maus, dose at which 50% of mice survive
in vivo = details: mouse, po
[1] = Blood levels after oral administration in the rat; format: in vivo; details: Ratte, orale Dosis 20 mg/kg, read-out: Antibiotikumkonzentration im Blut
Excerpt: ..Die nach oraler Gabe erzielten Blutspiegelwerte ergeben sich gemäss folgendem Vergleich an der Ratte.

| Compound | ED50 (Escherichia coli; po) | ED50 (Escherichia coli; sc) | ED50 (Serratia marcescens; po) | ED50 (Serratia marcescens; sc) | ED50 (Neisseria meningitidis) | ED50 (Streptococcus pyogenes; po) | ED50 (Streptococcus pyogenes; sc) | LD50 at 24 h (in vivo) | concentration at 0.25 h ([1]; after 15 min) | concentration at 0.5 h ([1]; after 30 min) | concentration at 0.75 h ([1]; after 45 min) | concentration at 1 h ([1]; after 60 min) | concentration at 1.5 h ([1]; after 90 min) | concentration at 2.5 h ([1]; after 150 min) |
| --- | --- | --- | --- | --- | --- | --- | --- | --- | --- | --- | --- | --- | --- | --- |
| CC1=C(C(=O)O)N2C(=O)[C@@H](NC(=O)[C@H](N)c3ccccc3)[C@H]2SC1 [Cephalexin] | 3.2 mg/kg | 2.1 mg/kg | > 50 mg/kg | > 50 mg/kg | 1.2 mg/kg | 1.8 mg/kg | 1.2 mg/kg | – | – | – | – | – | – | – |
| CO/N=C(\C(=O)N[C@@H]1C(=O)N2C(C(=O)OCOC(=O)C(C)(C)C)=C(CSc3nc(C(=O)OCOC(=O)C(C)(C)C)nn3C)CS[C@H]12)c1csc(N)n1 [Produkt A, Methylen (6R,7R)-7-[2-(2-Amino-4-thiazolyl)-2-[ (Z)-methoxyimino]-acetamido]-3-[[[2-methyl-5-[[(pivaloyloxy)methoxy]carbonyl]-2H-1,2,4-triazol-3-yl]thio]methyl]-8-oxo-5-thia-1-azabicyclo[4.2.0]oct-2-en-2-carboxylat-pivalat] | – | – | 0.68 mg/kg | 0.05 mg/kg | 0.14 mg/kg | 0.95 mg/kg | – | > 4000 mg/kg | 6000 ng/mL | 12000 ng/mL | 12000 ng/mL | 10000 ng/mL | 8000 ng/mL | 5000 ng/mL |
